Source: PubChem BioAssay AID463204 (Broad Institute, 2010)
The source made the active and inactive calls.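 Rule for the calls: active = AC50 no more than ten times the top concentration tested, that is within one log above it; inconclusive = flat curve fit with activity between 30% and 70%, or invalid poor fit; inactive = AC50 beyond ten times the top tested dose.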

System: S. cerevisiae Mot1-301 ts growth rescue, BacTiter-Glo ATP luminescence
Experiment: growth rescue of Mot1-301 ts yeast, confirmation, SUMOylation pathway inhibitor project, whole organism, S. cerevisiae, Mot1-301 ts mutant, luminescence, dose retest (AID 463204);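 note: growth at restrictive 38.5 degrees C of Mot1-301 OY566 strain; actives raise luminescence by restoring growth of the ts mutant at high temperature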

Compound | AC50
O=C1CC(N(CCc2ccccc2)C(=S)Nc2ccccc2)C(=O)N1c1ccc(F)cc1 (stereo unspecified) | > 42 µM (inactive)
O=C(NCc1ccccn1)C1CC(c2ccc(Cl)c(Cl)c2)=NO1 (stereo unspecified) | > 42 µM (inactive)
CC(C)COc1ccc(C(=O)Nc2ccc([N+](=O)[O-])cc2)cc1 | > 42 µM (inactive)
O=C1OCc2cc(NS(=O)(=O)c3cccs3)ccc21 | > 42 µM (inactive)
N#C/C(=C/c1ccc(N2CCCCC2)o1)C(=O)Nc1ccc(Cl)cc1 | > 42 µM (inactive)
CCN1CCCC1CN(Cc1cc2ccc(C)cc2[nH]c1=O)C(=S)Nc1ccc(OC)cc1OC (stereo unspecified) | > 42 µM (inactive)
Cc1ccc2nc(N/N=C/c3ccccc3F)nc(-c3ccccc3)c2c1 | > 42 µM (inactive)
Cc1cc(=O)oc2ccc(OC(=O)CC(C)C)cc12 | > 42 µM (inactive)
CC1Cc2ccccc2N1C(=O)Cn1c(=O)cc(O)c2ccccc21 (stereo unspecified) | > 42 µM (inactive)
Cc1ccc(-c2csc3ncn(CC(=O)N4CCOCC4)c(=O)c23)cc1 | > 42 µM (inactive)
CCN(CC)C(=O)C1CCCN(c2ccc([N+](=O)[O-])cc2/C=N/NC(=O)c2cccc(Br)c2)C1 (stereo unspecified) | > 42 µM (inactive)
N/C(=N\OC(=O)CCC1CCCC1)c1ccc([N+](=O)[O-])cc1 | > 42 µM (inactive)
CCOCCn1c(-c2ccc(OC)cc2)nc2ccccc21 | > 42 µM (inactive)
O=C(CCN1CCc2ccccc2C1)Nc1ccc2c(c1)OCO2 | > 42 µM (inactive)
O=C(CCc1ccccc1)NNC(=O)c1ccc(Br)cc1 | > 42 µM (inactive)
COc1ccc(-c2noc(CSc3nc(-c4ccccc4)cc(=O)[nH]3)n2)cc1OC | > 42 µM (inactive)
Oc1cccc2ccc(/C=C/c3ccccc3Br)nc12 | > 42 µM (inactive)
COC(=O)[C@H](Cc1ccccc1)NC(=O)NC(C)CCc1ccccc1 (stereo partly specified) | > 42 µM (inactive)
Cc1cccc(C)c1NC(=O)C1(N(Cc2ccco2)C(=O)CC2NC(=O)NC2=O)CCCCC1 (stereo unspecified) | > 42 µM (inactive)
O=C(/C=C/NNC(=O)c1ccc(Br)cc1)c1ccccc1 | > 42 µM (inactive)
CCOC(=O)c1ccccc1NC(=O)CSc1ccc(-c2ccccn2)nn1 | > 42 µM (inactive)
Cc1ccccc1-n1ncc2c([N+](=O)[O-])cc([N+](=O)[O-])cc21 | 5.35 µM
CN(CC(=O)N1CCc2[nH]c3ccc(F)cc3c2C1)CC1OCCO1 | > 42 µM (inactive)
CCOc1ccc(S(=O)(=O)N2CCC(C(=O)N3CCN(c4ccccc4)CC3)CC2)cc1 | > 42 µM (inactive)

Compound | AC50
O=C(c1cnn2c(C(F)(F)F)cc(-c3ccco3)nc12)N1CCCc2ccccc21 | > 42 µM (inactive)
CCn1nc(C(=O)OCc2cccc(S(=O)(=O)N(C)C)c2)c2ccccc2c1=O | > 42 µM (inactive)
CC(=O)Nc1cc2nn(-c3ccccc3)nc2cc1Cl | > 42 µM (inactive)
CC1CCN(CCCCOc2ccc(F)cc2)CC1 | > 42 µM (inactive)
Cc1c(C(=O)OCC(=O)Nc2ccc(S(N)(=O)=O)cc2)oc2c1ccc1ccccc12 | > 42 µM (inactive)
Cc1ccc(C(=O)N/C(=C\c2cccs2)C(=O)NCCc2c[nH]c3ccccc23)cc1 | > 42 µM (inactive)
CCOC(=O)C1(Cc2cccc(Cl)c2)CCCN(C(=O)CCOC)C1 (stereo unspecified) | > 42 µM (inactive)
NC(=O)C1CCCN(C(=S)Nc2cccc3ccccc23)C1 (stereo unspecified) | > 42 µM (inactive)
Cc1c(Cl)cccc1NC(=O)Cn1c(CCC(=O)O)ccc1-c1ccccc1 | > 42 µM (inactive)
COC(=O)CN1C(=O)c2cccc3cccc1c23 | > 42 µM (inactive)
CN(C)C(=O)CNC(=O)C1CCCCC1 | > 42 µM (inactive)
CCC(=O)Nc1nc(CC(=O)Nc2ccccc2OC)cs1 | > 42 µM (inactive)
O=C(OC1CCOC1=O)c1cccc(S(=O)(=O)Nc2ccc(F)cc2)c1 (stereo unspecified) | > 42 µM (inactive)
CCOC(=O)c1oc2ccccc2c1COC(=O)CNC(=O)c1cccc(C)c1 | > 42 µM (inactive)
Cc1nc(C)n(CC(=O)N2CCCC(C(=O)c3cccc4ccccc34)C2)n1 (stereo unspecified) | > 42 µM (inactive)
C=C1C2C[C@@]3([C@@H]1O)[C@@H](C[C@@H]2O)[C@@]12C4[C@@H]3C[C@@H]1[C@@](C)(CC[C@@H]2O)CN4CC | > 42 µM (inactive)
CCOc1ccc(Cn2c(SCCCCC#N)nc3c2c(=O)n(C)c(=O)n3C)cc1OCC | > 42 µM (inactive)
Cc1cc(C)c(S(=O)(=O)c2cccc(C)c2C)c(=O)[nH]1 | > 42 µM (inactive)
COc1ccc2c(C(=O)CN3CC(C)OC(C)C3)c[nH]c2c1 (stereo unspecified) | > 42 µM (inactive)
CC(NC(=O)CCc1nnc(-c2ccc(-c3ccccc3)cc2)o1)c1nc2ccccc2[nH]1 (stereo unspecified) | > 42 µM (inactive)
Cn1c(CCN2CCOCC2)nc2cc(NC(=O)COc3ccccc3)ccc21 | > 42 µM (inactive)
Cc1cccc(N=C2C(=O)Nc3c(Cl)cccc32)c1 | > 42 µM (inactive)
CCOC(=O)C1=C(C)NC(C)=C(C(=O)OCC)C1C(=O)OC1CCOC1=O (stereo unspecified) | > 42 µM (inactive)
Cc1ccc(C)c(N2CCN(C(c3ccncc3)c3nnnn3Cc3ccccc3)CC2)c1 (stereo unspecified) | > 21 µM (inactive)

Compound | AC50
O=C(c1cc(-c2ccc(Cl)c(Cl)c2)on1)N1CCN(c2ccccc2)CC1 | > 42 µM (inactive)
Cc1ccc(NC(=O)/C=N/OCC(=O)NCc2ccccc2Cl)cc1 | > 42 µM (inactive)
COCCn1c(SCc2ccc(Cl)cc2)nc2c1c(=O)[nH]c(=O)n2C | > 42 µM (inactive)
C[C@H]1CN=C(Nc2ccccc2)N1CCC1CCCC1 | > 42 µM (inactive)
CSc1ccc(CN2CCN(S(=O)(=O)Cc3ccccc3)CC2)cc1 | > 42 µM (inactive)
COc1ccc(N=Cc2c(O)n(C)c(=O)[nH]c2=O)cc1 | > 42 µM (inactive)
COC(=O)c1ccc(NC(=O)CCN2CCN(c3ccccc3)CC2)cc1 | > 42 µM (inactive)
C[C@@]12C(=O)Nc3ccc(F)cc3C(=O)N1[C@H]1c3cc(Cl)ccc3OC[C@@H]1[C@@H]2c1ccccc1 | 1.97 µM
O=C(CCC1CCCN(C(=O)Cc2cccc(F)c2)C1)N1CCN(c2ccccn2)CC1 (stereo unspecified) | > 42 µM (inactive)
OCC1(Cc2cccc(Cl)c2)CCCN(Cc2ccc(F)c(F)c2)C1 (stereo unspecified) | > 42 µM (inactive)
CN(CC(=O)Nc1ccccc1Sc1ccccc1)Cc1nc2ccccc2c(=O)[nH]1 | > 42 µM (inactive)
COc1ccc(S(=O)(=O)n2nc(-c3ccc(Cl)cc3)cc2N)cc1OC | > 42 µM (inactive)
Cc1cc(N2CCN(C)CC2)nc2ccc(NC(=S)N3CCC4(CC3)OCCO4)cc12 | > 42 µM (inactive)
O=C(NCc1ccccn1)C1Nc2ccc(C(F)(F)F)cc2C2C=CCC12 (stereo unspecified) | > 42 µM (inactive)
COc1ccc(-c2c(C)nn3c(C)cc(C)nc23)cc1 | > 42 µM (inactive)
Cc1ccc(Nc2cc(C)nc3c(C)ccc([N+](=O)[O-])c23)cc1 | 13.8 µM
C=CCC(NCCCO)c1cccc(OC)c1OC (stereo unspecified) | > 42 µM (inactive)
COC(=O)C1=C(C)N(Cc2ccccc2)C(=S)N[C@H]1c1cccc(F)c1 | > 42 µM (inactive)
CCNC(=O)COc1ccc(S(=O)(=O)Nc2ccccc2)cc1 | > 21 µM (inactive)
Cc1nc2ccc(NC(=O)c3ccco3)cc2s1 | > 42 µM (inactive)
O=S(=O)(c1cccc(-c2nnco2)c1)N1CCCC1 | > 42 µM (inactive)
NC(=O)CC(NC(=O)Cc1cccc2ccccc12)c1ccc(NCCCN2CCCC2=O)c([N+](=O)[O-])c1 (stereo unspecified) | > 42 µM (inactive)
Cc1cc(/C=C2\C(=O)NC(=O)N(c3ccccc3F)C2=O)c(C)n1-c1cc(C(=O)O)cc(C(=O)O)c1 | > 42 µM (inactive)
COc1ccccc1CCNC(=O)/C(=C/c1cccnc1)NC(=O)c1ccccc1 | > 42 µM (inactive)

Compound | AC50
CN1CCCCC1=NCCCn1cnc2c1c(=O)n(C)c(=O)n2C | > 42 µM (inactive)
O=C(N/N=C/c1ccccc1)c1[nH]c2ccc(Br)cc2c1-c1ccccc1 | > 42 µM (inactive)
Cc1ccc(C(=O)NCCCNC(=O)c2ccc(C)nc2)cc1 | > 42 µM (inactive)
Cc1cc(C)n(CCCNC(=O)CN(C)S(=O)(=O)c2ccc(Cl)cc2)n1 | > 42 µM (inactive)
CCc1cccc(C)c1NC(=O)CSc1nnc(-c2cc3cc(Br)ccc3o2)n1CC | > 42 µM (inactive)
COCCn1c(SCC(=O)N2CCCC2)nnc1-c1ccoc1C | > 42 µM (inactive)
CCOC(=O)c1[nH]c2ccc(Br)cc2c1NC(=O)CCN1CCOCC1 | > 42 µM (inactive)
O=C(COc1cnc2ccccc2n1)NCCC1=CCCCC1 | > 42 µM (inactive)
CCCN1C(=O)c2[nH]nc(-c3cc(Cl)c(C)cc3O)c2C1c1ccc(O)c(OC)c1 (stereo unspecified) | > 42 µM (inactive)
Cc1ccc(C(=O)NC(Cc2c[nH]c3ccccc23)C(=O)O)o1 (stereo unspecified) | > 42 µM (inactive)
O=Nc1c(-c2cccc([N+](=O)[O-])c2)nc2ncccn12 | 4.09 µM
CCCC(O)(c1ccc(Br)cc1)C(CN1CCOCC1)c1ccc(Cl)cc1 (stereo unspecified) | 5.13 µM
COc1ccc(OCC(O)CN2C(=O)NC(C)(C)C2=O)cc1 (stereo unspecified) | > 42 µM (inactive)
Nc1nc(SCc2nc3scc(-c4cccs4)c3c(=O)[nH]2)n[nH]1 | > 42 µM (inactive)
Fc1ccc2c(c1)nnn2C1CCN(Cc2nnnn2C2CCCCC2)CC1 | > 42 µM (inactive)
CC(C)(C)n1nnnc1C(c1ccc(Cl)cc1)N(Cc1cccnc1)Cc1ccco1 (stereo unspecified) | 7.98 µM
Cc1c(C(=O)N2CCCC2)c(S(=O)(=O)Nc2cccc(Br)c2)c(C)n1C | > 42 µM (inactive)
Cc1ccc(F)cc1NS(=O)(=O)c1ccc(Cl)s1 | 22.2 µM
O=C(NCc1cccnc1)C1CCN(S(=O)(=O)c2cccnc2)CC1 | > 42 µM (inactive)
CCOC(=O)c1cc2c(ccn2-c2ccc(F)cc2)n1CC(=O)N1CCN(C(=O)c2ccco2)CC1 | > 42 µM (inactive)
COc1ccc2c(c1)OC[C@H]1[C@H]2N2C(=O)c3ccccc3NC(=O)[C@@]2(C)[C@H]1c1ccccc1 | > 42 µM (inactive)
COC(=O)c1ccc(Cl)c(NC(=O)CN(c2ccc(OC)c(OC)c2)S(C)(=O)=O)c1 | > 42 µM (inactive)
Cc1cc(C)c2nc(-c3cccnc3)cc(C(=O)Nc3ccc(S(=O)(=O)Nc4onc(C)c4C)cc3)c2c1 | > 42 µM (inactive)
COc1ccc(NC2=C(C)C(=O)CC2)cc1 | > 42 µM (inactive)
